Reference: PubChem BioAssay (NCI)
Where “and” joins values, the source holds several entries; their conditions need not be identical. Identical values can stand only once.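 Values below derive from 48-hour exposures of cells grown in 96-well plates, with endpoints linearly interpolated between the two concentrations bracketing the appropriate inhibition level. The concentration for 50% growth inhibition is given as GI50. TGI is the concentration that stops growth completely.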

Experiments:
Experiment in all cases: growth of human tumour cells (NCI), 48 h
[1] = test system: OVCAR-8 ovarian
[2] = test system: SK-OV-3 ovarian
[3] = test system: TK-10 renal
[4] = test system: MOLT-4 leukemia
[5] = test system: UO-31 renal
[6] = test system: OVCAR-5 ovarian
[7] = test system: ACHN renal
[8] = test system: SK-MEL-28 melanoma
[9] = test system: K-562 leukemia
[10] = test system: OVCAR-4 ovarian

| SMILES | TGI [1] | TGI [2] | TGI [3] [µM] | TGI [4] | TGI [5] | TGI [6] | TGI [7] [µM] | TGI [8] | TGI [9] | TGI [10] | GI50 [5] [µM] | GI50 [6] [µM] | GI50 [2] [µM] | GI50 [3] [µM] | GI50 [4] | GI50 [10] [µM] | GI50 [1] [µM] | GI50 [7] [µM] | GI50 [8] [µM] | GI50 [9] [µM] |
| --- | --- | --- | --- | --- | --- | --- | --- | --- | --- | --- | --- | --- | --- | --- | --- | --- | --- | --- | --- | --- |
| CCCCCCCSc1nc2c(C(=O)OCC)ncn2c2ccccc12 | > 100 µM | > 100 µM | > 100 | > 100 µM | > 100 µM | > 100 µM | > 100 | > 100 µM | > 100 µM | – | – | – | – | – | – | – | – | – | – | – |
| O=NC1C(Cl)C2CC1C1C(Br)C(Br)CC21 (configuration not stated) | > 100 µM | > 100 µM | > 100 | > 100 µM | > 100 µM | > 100 µM | > 100 | > 100 µM | > 100 µM | > 100 µM | – | – | – | – | – | – | – | – | – | – |
| CN1CCCCC1CCN1CCCCC1 (configuration not stated) | > 100 µM | > 100 µM | > 100 | > 100 µM | > 100 µM | > 100 µM | > 100 | > 100 µM | > 100 µM | > 100 µM | – | – | – | – | – | – | – | – | – | – |
| C/C=C/[P+](c1ccccc1)(c1ccccc1)c1ccccc1 | 17.3 µM | 10.5 µM | 20.3 | 19.6 µM | 88.6 µM | 33.2 µM | 62.5 | 17.5 µM | 28.2 µM | 25.4 µM | – | – | – | – | – | – | – | – | – | – |
| Cc1sc(Cc2ccccc2)nc1-c1ccc(N)cc1 | > 100 µM | – | > 100 | 51.1 µM | > 100 µM | > 100 µM | > 100 | 61.4 µM | > 100 µM | 51.1 µM | – | – | – | – | – | – | – | – | – | – |
| CCOC(=O)/C(Cl)=C(\C)Nc1nc2c(ccc3ccccc32)s1 | > 100 µM | > 100 µM | > 100 | > 100 µM | > 100 µM | > 100 µM | > 100 | > 100 µM | > 100 µM | > 100 µM | – | – | – | – | – | – | – | – | – | – |
| CN(C)CCCNc1ccc2ncn3c4ccccc4c(=O)c1c23 | 20 µM | > 100 µM | 69.7 | 13 µM | 52.3 µM | 38.5 µM | 52.5 | > 100 µM | 24.1 µM | 97.1 µM | – | – | – | – | – | – | – | – | – | – |
| CC12CCC(C(=O)OC1=O)C(C)(C)O2 (configuration not stated) | > 100 µM | > 100 µM | > 100 | > 100 µM | > 100 µM | > 100 µM | > 100 | > 100 µM | > 100 µM | > 100 µM | – | – | – | – | – | – | – | – | – | – |
| O=S(=O)(Sc1ccc(Cl)cc1)c1ccc(Cl)cc1 | 30.2 µM | 85.2 µM | 61.4 | 44.5 µM | 23.9 µM | 37.9 µM | 31.2 | 31.1 µM | 93.7 µM | 41.7 µM | – | – | – | – | – | – | – | – | – | – |
| CC(=O)C(O)N1C(=O)C=CC1=O (configuration not stated) | – | – | – | – | – | – | – | – | – | – | 2260 | 10500 | – | – | – | – | – | – | – | – |
| Cc1cc(NCc2cc(Nc3ccnc4cc(Cl)ccc34)ccc2F)nc(N2CCCC2)n1 | – | 5.09 µM | 3.61 | 14.3 µM | 2.86 µM | – | – | – | – | 4.54 µM | 1.27 | – | 2.04 | 1.94 | 1.95 µM | 1.27 | – | – | – | – |
| COc1ccc(N2C(=O)C3c4[nH]c5c(C)cccc5c4C4CCC(C(C)(C)C)CC4C3C2=O)cc1 (configuration not stated) | > 10 µM | > 10 µM | > 10 | > 10 µM | > 10 µM | > 10 µM | > 10 | > 10 µM | > 10 µM | > 10 µM | – | – | – | – | – | – | – | – | – | – |
| N#CC(c1ccccc1)c1nc2ccc(=N)cc-2n(O)c1C(C#N)c1ccccc1 (configuration not stated) | > 100 µM | > 100 µM | > 100 | > 100 µM | > 100 µM | > 100 µM | > 100 | > 100 µM | > 100 µM | > 100 µM | – | – | – | – | – | – | – | – | – | – |
| CN(C)CCNc1nc(-c2ccc3ccccc3c2)nc2nc[nH]c12 | 24.4 µM | 20.8 µM | 19.4 | 18.6 µM | 12.9 µM | 26 µM | 11.9 | 28.9 µM | > 100 µM | 23.8 µM | – | – | – | – | – | – | – | – | – | – |
| C[C@@H]1CC[C@H]2C(COCCOCC3=C(C(F)(F)F)O[C@@H]4O[C@@]5(C)CC[C@H]6[C@H](C)CC[C@@H]3[C@@]46OO5)=C(C(F)(F)F)O[C@@H]3O[C@@]4(C)CC[C@@H]1[C@]32OO4 | > 100 µM | > 100 µM | > 100 | > 100 µM | > 100 µM | > 20 µM | > 10.3 | > 55.3 µM | > 100 µM | > 100 µM | 0.186 | > 4.64 | > 31.5 | 0.0557 | < 0.0349 µM | > 100 | < 0.0261 | 0.0797 | > 7.2 | < 0.0241 |
| CC1=C2C(=O)c3ccccc3C(=O)[C@H]2[C@H]2CCO[C@H]2O1 | 45.2 µM | > 100 µM | 67 | > 100 µM | 35.7 µM | 49.2 µM | 45.5 | 63.1 µM | 74.5 µM | 37.4 µM | – | – | – | – | – | – | – | – | – | – |
| Cc1ccc(Oc2ccc(C)cc2[N+](=O)[O-])cc1 | > 100 µM | > 100 µM | > 100 | > 100 µM | > 100 µM | > 100 µM | > 100 | > 100 µM | > 100 µM | > 100 µM | – | – | – | – | – | – | – | – | – | – |
| O=c1oc2ccccc2c2c(=O)c3ccc(OC/C(=N/O)c4ccc(Cl)cc4)cc3oc12 | 65.1 µM | 24.3 µM | – | 8.79 µM | 30.8 µM | 37 µM | 19.2 | – | 12.1 µM | – | – | – | – | – | – | – | – | – | – | – |
| Cc1ccc(S(=O)(=O)NCCSCCNS(=O)(=O)c2ccc(C)cc2)cc1 | > 100 µM | > 100 µM | > 100 | > 100 µM | > 100 µM | – | > 100 | > 100 µM | > 100 µM | > 100 µM | – | – | – | – | – | – | – | – | – | – |
| COc1ccc([C@@H]2ON(C)[C@H]3CN(C)C(=O)[C@@H]23)cc1 | > 100 µM | > 100 µM | > 100 | > 100 µM | > 100 µM | > 100 µM | > 100 | > 100 µM | > 100 µM | > 100 µM | – | – | – | – | – | – | – | – | – | – |
| O=C1c2c(c3c4ccccc4[nH]c3c3ccc4ccccc4c23)C(=O)N1CCN1CCCCC1 | 4.48 µM | > 100 µM | > 100 | 5.35 µM | – | 3.49 µM | 2.26 | 3.16 µM | 6.34 µM | 5.74 µM | – | 1.52 | 0.801 | 3.38 | 0.354 µM | 2.03 | 1.27 | 0.335 | 1.65 | 1.33 |
| Cc1c2cc[n+](CCN3CCCCC3)cc2c(C)c2c1[nH]c1ccc(O)cc12 | 30.6 µM and 44.7 µM | 33.9 µM and 31.2 µM | > 57.6 | 8.96 µM and 5.96 µM | 69.9 µM and 61.2 µM | 62.4 µM and > 77.3 µM | 22.9 | 33.7 µM and > 45.9 µM | 25.3 µM and 14.8 µM | 7.39 µM and 24.6 µM | 9.25 | 25.2 | 4.42 | – | 0.267 µM and 0.0385 µM | 2.98 | 3.36 | – | 9.29 | 2.33 |
| CCCCCCNC(=O)c1cnc(Cl)cn1 | 34.5 µM | 66 µM | > 100 | 23.2 µM | 3.24 µM | 32.5 µM | 8.49 | 74.9 µM | 40.2 µM | 47.9 µM | – | – | – | – | – | – | – | – | – | – |
| Cc1ccccc1N=Nc1ccc(N=Nc2c(O)ccc3ccccc23)c(C)c1 | > 100 µM | > 100 µM | > 100 | > 100 µM | > 100 µM | > 100 µM | > 100 | > 100 µM | > 100 µM | > 100 µM | – | – | – | – | – | – | – | – | – | – |
| NC(N)=N/N=C/c1c(-c2ccccc2)nc2n1ccc1nc(-c3ccccc3)c(/C=N/N=C(N)N)n12 | > 100 µM | > 100 µM | > 100 | > 100 µM | > 100 µM | > 100 µM | > 100 | > 100 µM | > 100 µM | > 100 µM | – | – | – | – | – | – | – | – | – | – |
| O=c1ccc2cc(O)c(O)cc2o1 | > 100 µM | > 100 µM | > 100 | > 100 µM | > 100 µM | > 100 µM | > 100 | > 100 µM | > 100 µM | > 100 µM | – | – | – | – | – | – | – | – | – | – |
